From patent publication US5208135A, “Preparation and use of dyes” (Minnesota Mining and Manufacturing Company, priority 1990, dated 1993)

How the values were obtained:
[1] = Dye stability on storage in light-tight envelope at room temperature; assay type: physicochemical; conditions: for Dye Stability: OD at Day 0 / Dye Stability: OD at Day 7: lighttight envelope; for Dye Stability: OD at Day 0 / Dye Stability: OD at Day 7 / Loss of optical density after storage (thermal bleaching) / Loss of dye density during storage: room temperature; for Loss of optical density after storage (thermal bleaching): Example 5 coating, 24 hour storage, light-tight envelope; for Loss of dye density during storage: less than 24 hours
Description: However, both Control Dyes 1 and 2 are readily bleached during storage with an 80% loss of dye density in less than 24 hours. Thus the dyes of the invention show increased stability compared with the control dyes.
*Storage is conducted in a lighttight envelope at room temperature.

[2] = Sensitisation of acrylate polymerisation: tungsten light exposure of laminate, acetone development (Example 4); conditions: coating; for Acetone Solubility After Exposure: after exposure to 250W tungsten light source for 30 seconds
Description: The ability of Dye C of the invention and Control Dyes 1 and 2 to sensitise acrylate polymerisation was evaluated by the following protocol.
A solution of Dye C (0.lg), pentaerythritol tetraacrylate monomer (0.6g), commercially available from Ancomer Chemicals under the trade designation ATM 11, 4-butoxyphenyl phenyl iodonium trifluoroacetate (0.125g) shown below as IOD J, and poly(vinyl butyral) (Butvar B-76) (0.6 g), was made in butanone (95 g) in conditions of diminished light. [drawing 30]
The solution was coated onto 0.01 cm unsubbed poly(ethylene terephthalate) (PET) base at a wet thickness of 24μm and dried. A laminate was prepared by covering the monomer coating with a second 0.01 cm PET sheet by cold pressure rolling. The laminate was imagewise exposed to a 250W tungsten light source for 30 seconds using the stage of an overhead projector. […] Stripping of the cover sheet was more readily completed in exposed areas, whereas, in unexposed areas the monomer coatings partially adhered to the cover sheet. The latent image was developed by immersion in acetone, wherein exposed areas remained adhered to the PET base and unexposed areas were rapidly dissolved to obtain a relief image.

[3] = Absorption maximum and optical density of dye; assay type: physicochemical; conditions: for λmax: Table 1
Description: The solution was coated using K-bar 3 onto unsubbed 0.01 cm PET base and the resulting coating dried for 1 hour at 30° C. ("K-bars" are wire wound coating rods manufactured by R.K. Print-Coat Instrument Ltd.) The dried coating was topcoated with an aqueous solution of poly(vinyl alcohol) (8%) containing Tergitol TMN-10, commercially available from Union Carbide, using K-Bar 8 (10 ml 8% poly(vinyl alcohol) containing 1 ml 10% Tergitol TMN-10). The top coating was dried for 12 hours at 30° C. to provide a PVA oxygen-impermeable barrier layer over the photopolymer layer. The inclusion of a PVA barrier layer provides a more controlled imaging element for the evaluation of dye sensitised photopolymerisation than the composite of the previous Example.

Dye Stability: OD at Day 0 [1] | Dye Stability: OD at Day 7 [1] | λmax [3] [nm] | Loss of optical density after storage (thermal bleaching) [1] | Loss of dye density during storage ([1]; laminate) [%] | Absorption maximum in coating ([3]; dried coating of Example 5) [nm] | OD at the absorption maximum ([3]; dried coating of Example 5, at 803 nm) | Structure (SMILES) | Imaging characteristics after storage ([1]; laminate, light tight envelope, 7 days, room temperature prior to exposure) | Acetone Solubility After Exposure [2] | Acetone Solubility Before Exposure [2]
1.5 | 0.1 | 760 | lost substantially all optical density | 80 | – | – | O=C1C(=CC=CC=CC=CC2=C(O)c3ccccc3C2=O)C(=O)c2ccccc21 [Control Dye 2] | – | Yes | Yes
1.3 | 0.1 | 650 | lost substantially all optical density | 80 | – | – | CCOC(=O)C(C#N)=CC=CC=CC=CC(C#N)=C(O)OCC [Control Dye 1] | – | Yes | Yes
– | – | – | – | – | 803 | 0.39 | N#CC(C#N)=C1C(=CC=CC=CC2=C(O)c3ccccc3C2=C(C#N)C#N)C(=O)c2ccccc21 [Dye B] | – | – | –

Structure (SMILES) | Dye Stability: OD at Day 0 [1] | Dye Stability: OD at Day 7 [1] | λmax [3] [nm] | Loss of optical density after storage (thermal bleaching) [1] | Loss of dye density during storage ([1]; laminate) [%] | Absorption maximum in coating ([3]; dried coating of Example 5) [nm] | OD at the absorption maximum ([3]; dried coating of Example 5, at 803 nm) | Imaging characteristics after storage ([1]; laminate, light tight envelope, 7 days, room temperature prior to exposure) | Acetone Solubility After Exposure [2] | Acetone Solubility Before Exposure [2]
N#CC(C#N)=C1C(=CC=CC=CC2=C(O)c3c(cccc3[N+](=O)[O-])C2=C(C#N)C#N)C(=O)c2c1cccc2[N+](=O)[O-] [Dye C] | 0.8 | 0.8 | 815 | – | – | – | – | unchanged imaging characteristics | No | Yes
